Reference: patent publication US20220184008A1, “MODULATORS OF INTRACELLULAR CHLORIDE CONCENTRATION” (FONDAZIONE ISTITUTO ITALIANO DI TECNOLOGIA, priority 2019, published 2022)

Assays:
NKCC1 [1] = assay: Calcium kinetic assay in primary cultures of immature hippocampal neurons; type: cell-based; conditions: 10 μM, immature neurons 3 DIV
Method: FIG. 2: In vitro testing of the NKCC1 inhibitors in a calcium kinetic assay. a) Example traces of fluorescence levels upon application of GABA (100 μM) and KCl (90 mM) used to trigger calcium influx in primary neuronal cultures treated after 3 days in culture (3 DIV) with vehicle, bumetanide, furosemide and compounds 3.8, 3.13 and 3.17 in the calcium kinetic assay. b) Quantification of the average fluorescence increase upon GABA application normalized to the increase upon KCl application in neurons treated with bumetanide, furosemide and 3 exemplary compounds (3.8, 3.13, 3.17) (10 μM, 100 μM). Data represents mean±sem from 5 independent experiments, and they are presented as % of the control. *P<0.05, **P<0.01, ***P<0.001 Kruskal-Wallis Anova (Dunn's Post hoc Test).
Next, the compounds of the invention were tested for their ability to revert the depolarizing GABAergic signaling in immature neurons. This effect was indirectly measured as calcium influx into the cells with an in vitro calcium kinetic assay in primary cultures of hippocampal neurons. The calcium kinetic assay exploits the physiological, endogenous, high expression of NKCC1 in immature neurons, which causes depolarizing actions of GABA and can activate voltage-gated Ca^2+ channels. Thus, in immature neurons, a compound that blocks NKCC1 is predicted to inhibit Ca^2+ responses upon GABA application. Immature neurons were cultured for 3 days in vitro (3 DIV) and loaded for 15 min with a calcium-sensitive dye (Fluo4). Then, the neurons were treated with bumetanide and furosemide (as positive controls) or with each of the selected compounds for 15 min. As a functional readout, the fluorescence level was monitored in these cultures before and after application of GABA (100 μM, for 20 sec). To test for neuronal viability at the end of the experiment, KCl was applied (90 mM, for 40 sec), which strongly depolarizes neurons, causing high activation of voltage-gated Ca^2+ channels in live cells. To quantify how bumetanide, furosemide, and selected compounds influenced NKCC1 inhibition, the fluorescence values were normalized upon GABA application to the fluorescence levels upon KCl application in treated neurons.

NKCC1 [2] = target: T1, NKCC1 (Homo sapiens, UniProt P55011); assay: Chloride kinetic assay (Cl-sensitive YFP) in NKCC1-transfected HEK293 cells; type: cell-based; conditions: 10 μM, NKCC1-transfected HEK293; for inhibition at 10 µM: read-out: NKCC1 Inhibition % 10 μM HEK Chloride YFP assay
T1 construct: expressed in transfected cells; host or cells: HEK293
T1 sequence (P55011 1-1212): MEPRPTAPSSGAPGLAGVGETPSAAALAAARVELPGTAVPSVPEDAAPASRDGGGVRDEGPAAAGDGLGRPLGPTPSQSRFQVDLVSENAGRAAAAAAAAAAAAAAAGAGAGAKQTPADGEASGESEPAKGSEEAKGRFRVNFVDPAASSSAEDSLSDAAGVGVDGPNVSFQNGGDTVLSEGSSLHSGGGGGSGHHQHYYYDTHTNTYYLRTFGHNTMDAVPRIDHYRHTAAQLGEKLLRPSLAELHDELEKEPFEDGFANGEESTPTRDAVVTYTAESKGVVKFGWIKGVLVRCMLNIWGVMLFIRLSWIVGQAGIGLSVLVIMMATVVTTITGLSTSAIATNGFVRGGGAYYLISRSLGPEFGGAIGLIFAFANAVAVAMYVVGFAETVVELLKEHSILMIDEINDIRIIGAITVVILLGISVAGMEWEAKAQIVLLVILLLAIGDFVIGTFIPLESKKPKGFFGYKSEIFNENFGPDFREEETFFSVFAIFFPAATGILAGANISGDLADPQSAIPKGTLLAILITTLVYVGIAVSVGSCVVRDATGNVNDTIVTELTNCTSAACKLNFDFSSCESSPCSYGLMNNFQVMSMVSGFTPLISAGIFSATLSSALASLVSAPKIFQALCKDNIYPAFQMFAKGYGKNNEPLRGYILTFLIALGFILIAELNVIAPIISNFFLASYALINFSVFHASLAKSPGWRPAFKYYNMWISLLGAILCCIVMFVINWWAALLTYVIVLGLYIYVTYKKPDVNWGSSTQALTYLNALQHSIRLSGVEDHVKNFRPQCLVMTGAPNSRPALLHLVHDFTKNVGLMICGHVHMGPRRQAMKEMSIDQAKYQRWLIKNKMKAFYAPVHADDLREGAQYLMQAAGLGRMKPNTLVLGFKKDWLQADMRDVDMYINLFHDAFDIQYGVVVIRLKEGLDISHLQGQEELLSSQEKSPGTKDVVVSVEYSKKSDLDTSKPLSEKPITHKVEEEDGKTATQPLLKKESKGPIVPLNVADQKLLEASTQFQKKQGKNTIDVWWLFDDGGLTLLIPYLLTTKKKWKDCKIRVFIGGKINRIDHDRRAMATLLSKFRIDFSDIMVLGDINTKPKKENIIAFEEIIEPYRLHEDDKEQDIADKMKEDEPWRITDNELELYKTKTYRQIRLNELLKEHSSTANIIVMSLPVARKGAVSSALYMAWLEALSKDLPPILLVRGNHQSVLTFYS
Method: FIG. 1: In vitro testing of the NKCC1 inhibitors in the chloride kinetic assay a) Example traces obtained in the chloride kinetic assay on HEK cells transfected with the YFP (mock) or with YFP and NKCC1. The arrow indicates the addition of NaCl (final concentration 74 mM) used to initiate the flux assay. b) Quantification of the effect of bumetanide (10 μM and 100 μM) or furosemide (10 μM and 100 μM) in the chloride kinetic assay on mock or NKCC1-transfected HEK293 cells. Data represents mean±sem from 5 independent experiments. c) Quantification of the effect of bumetanide and furosemide and 2 selected compounds (3.8, 3.17) in the chloride kinetic assay on NKCC1-transfected HEK293 cells. Data represents mean±sem from 5 independent experiments, and they are represented as % of the controls. *P<0.05, **P<0.01, ***P<0.001 Kruskal-Wallis Anova (Dunn's Post hoc Test); ###P<0.001 two-tailed unpaired Student t-test.
To screen in vitro the compounds efficiency in blocking NKCC1, a functional NKCC1 transporter assay was performed by measuring variation of Cl^− ion concentration in the cell through a Cl^− sensitive membrane-tagged yellow fluorescent protein (mbYFPQS, Addgene). mbYFPQS fluorescence is inversely dependent on the concentration of Cl^− inside the cell thus allowing an indirect estimation of the Cl^− transporter activity. In particular, HEK293 cells were transfected with NKCC1 or mock construct (control) together with the Cl^− sensitive YFP. After 2 DIV, the cells were treated with bumetanide and furosemide (as positive controls) or with each of the tested compounds of the invention in a Cl^− free medium. After 30 min, the inhibitory activity of the compounds was tested by monitoring fluorescence upon application of NaCl (FIG. 1a). Transported by NKCC1, Cl binds the YFP, leading to a fluorescence decrease. […] With the Cl kinetic assay, the NKCC1 inhibitory activity of the selected compounds was tested (FIG. 1c).

CN(C)S(=O)(=O)c1cc(C(=O)O)ccc1NCCCCCC(F)(F)F [Compound 3.16, 3-(dimethylsulfamoyl)-4-(6,6,6-trifluorohexylamino) benzoic acid]
NKCC1 Inhibition % 10 μM Neurons Calcium kinetic assay (NKCC1 [1]; Table 1): Inactive | NKCC1 Inhibition % 10 μM Neurons Calcium kinetic assay (NKCC1 [1]; Table 2): Inactive | inhibition at 10 µM (NKCC1 [2]; Table 1): 17%

CNS(=O)(=O)c1cc(C(=O)O)ccc1NCCCCCCCC(F)(F)F [Compound 3.10, 3-(methylsulfamoyl)-4-(8,8,8-trifluorooctylamino)benzoic acid]
NKCC1 Inhibition % 10 μM Neurons Calcium kinetic assay (NKCC1 [1]; Table 1): 14% | NKCC1 Inhibition % 10 μM Neurons Calcium kinetic assay (NKCC1 [1]; Table 2): 14% | NKCC1 Inhibition % 10 μM HEK Chloride YFP assay (NKCC1 [2]; Table 1): Inactive | NKCC1 Inhibition % 10 μM HEK Chloride YFP assay (NKCC1 [2]; Table 2): Inactive

NS(=O)(=O)c1cc(C(=O)O)c(O)cc1NCCCCCCCC(F)(F)F [Compound 7.4, 2-hydroxy-5-sulfamoyl-4-(8,8,8-trifluorooctylamino) benzoic acid]
NKCC1 Inhibition % 10 μM Neurons Calcium kinetic assay (NKCC1 [1]; Table 1): 24% | inhibition at 10 µM (NKCC1 [2]; Table 1): 30%

COCCNc1ccc(C(=O)O)cc1S(=O)(=O)N(C)C [Compound 3.18, 3-(dimethylsulfamoyl)-4-(2-methoxyethylamino)benzoic acid]
NKCC1 Inhibition % 10 μM Neurons Calcium kinetic assay (NKCC1 [1]; Table 1): Inactive | NKCC1 Inhibition % 10 μM Neurons Calcium kinetic assay (NKCC1 [1]; Table 2): Inactive | inhibition at 10 µM (NKCC1 [2]; Table 1): 13%

O=C(O)c1ccc(NCCCCCCCC(F)(F)F)c(S(=O)(=O)NC2CCCC2)c1 [Compound 3.21, 3-(cyclopentylsulfamoyl)-4-(8,8,8-trifluorooctylamino) benzoic acid]
NKCC1 Inhibition % 10 μM Neurons Calcium kinetic assay (NKCC1 [1]; Table 1): 51% | NKCC1 Inhibition % 10 μM Neurons Calcium kinetic assay (NKCC1 [1]; Table 2): 51% | inhibition at 10 µM (NKCC1 [2]; Table 1): 18%

COCCCCNc1ccc(C(=O)O)cc1S(=O)(=O)N(C)C [Compound 3.19, 3-(dimethylsulfamoyl)-4-(4-methoxybutylamino)benzoic acid]
NKCC1 Inhibition % 10 μM Neurons Calcium kinetic assay (NKCC1 [1]; Table 1): Inactive | NKCC1 Inhibition % 10 μM Neurons Calcium kinetic assay (NKCC1 [1]; Table 2): Inactive | inhibition at 10 µM (NKCC1 [2]; Table 1): 6%

CN(C)S(=O)(=O)c1cc(C#N)ccc1NCCCCCCCC(F)(F)F [Compound 6.3, 5-cyano-N,N-dimethyl-2-(8,8,8-trifluorooctylamino) benzenesulfonamide]
inhibition at 10 µM (NKCC1 [2]; Table 1): 20%

CCOc1cc(NCCCCCCCC(F)(F)F)c(S(=O)(=O)N(C)C)cc1C(=O)O [Compound 12.9]
NKCC1 Inhibition % 10 μM Neurons Calcium kinetic assay (NKCC1 [1]; Table 1): 12.2%

O=C(O)c1ccc(NCCCCCCCC(F)(F)F)c(S(=O)(=O)N2CCOCC2)c1 [Compound 5.7, 3-morpholinosulfonyl-4-(8,8,8-trifluorooctylamino) benzoic acid]
NKCC1 Inhibition % 10 μM Neurons Calcium kinetic assay (NKCC1 [1]; Table 1): 24% | NKCC1 Inhibition % 10 μM Neurons Calcium kinetic assay (NKCC1 [1]; Table 2): 24% | inhibition at 10 µM (NKCC1 [2]; Table 1): 13%

O=C(O)c1ccc(NCCCCCCCC(F)(F)F)c(S(=O)(=O)N2CCCCC2)c1 [Compound 5.6, 3-(1-piperidylsulfonyl)-4-(8,8,8-trifluorooctylamino) benzoic acid]
NKCC1 Inhibition % 10 μM Neurons Calcium kinetic assay (NKCC1 [1]; Table 1): 55% | NKCC1 Inhibition % 10 μM Neurons Calcium kinetic assay (NKCC1 [1]; Table 2): 55% | NKCC1 Inhibition % 10 μM HEK Chloride YFP assay (NKCC1 [2]; Table 1): Inactive | NKCC1 Inhibition % 10 μM HEK Chloride YFP assay (NKCC1 [2]; Table 2): Inactive

O=C(O)c1ccc(NCCCCCCCC(F)(F)F)c(S(=O)(=O)N2CCCC2)c1 [Compound 5.5, 3-pyrrolidin-1-ylsulfonyl-4-(8,8,8-trifluorooctylamino) benzoic acid]
NKCC1 Inhibition % 10 μM Neurons Calcium kinetic assay (NKCC1 [1]; Table 1): 39% | NKCC1 Inhibition % 10 μM Neurons Calcium kinetic assay (NKCC1 [1]; Table 2): 39% | inhibition at 10 µM (NKCC1 [2]; Table 1): 2%

CN(C)S(=O)(=O)c1cc(C(=O)O)ccc1NCCCC(F)(F)F [Compound 3.15, 3-(dimethylsulfamoyl)-4-(4,4,4 trifluorobutylamino) benzoic acid]
NKCC1 Inhibition % 10 μM Neurons Calcium kinetic assay (NKCC1 [1]; Table 1): Inactive | NKCC1 Inhibition % 10 μM Neurons Calcium kinetic assay (NKCC1 [1]; Table 2): Inactive | inhibition at 10 µM (NKCC1 [2]; Table 1): 11%

COc1cc(NCCCCCCCC(F)(F)F)c(S(=O)(=O)N(C)C)cc1C(=O)O [Compound 13.1, 5-(N,N-dimethylsulfamoyl)-2-methoxy-4-((8,8,8-trifluorooctyl)amino)benzoic acid]
NKCC1 Inhibition % 10 μM Neurons Calcium kinetic assay (NKCC1 [1]; Table 1): 14.2%

COCCCCCCNc1ccc(C(=O)O)cc1S(=O)(=O)N(C)C [Compound 3.20, 3-(dimethylsulfamoyl)-4-(6-methoxyhexylamino)benzoic acid]
NKCC1 Inhibition % 10 μM Neurons Calcium kinetic assay (NKCC1 [1]; Table 1): 20% | NKCC1 Inhibition % 10 μM Neurons Calcium kinetic assay (NKCC1 [1]; Table 2): 20% | NKCC1 Inhibition % 10 μM HEK Chloride YFP assay (NKCC1 [2]; Table 1): Inactive | NKCC1 Inhibition % 10 μM HEK Chloride YFP assay (NKCC1 [2]; Table 2): Inactive

CN(C)S(=O)(=O)c1cc(C(=O)O)ccc1N1CCN(CCCCC(F)(F)F)CC1 [Compound 9.1, 3-(dimethylsulfamoyl)-4-[4-(5,5,5 trifluoropentyl)piperazin-1-yl] benzoic acid]
inhibition at 10 µM (NKCC1 [2]; Table 1): 3%

O=C(O)c1ccc(NCCCCCCCC(F)(F)F)c(S(=O)(=O)N2CCC(F)(F)CC2)c1 [Compound 14.4, 3-((4,4-difluoropiperidin-1-yl)sulfonyl)-4-((8,8,8-trifluorooctyl)amino)benzoic acid]
NKCC1 Inhibition % 10 μM Neurons Calcium kinetic assay (NKCC1 [1]; Table 1): 48.0%

O=C(O)c1ccc(NCCCCCCCC(F)(F)F)c(S(=O)(=O)N2CCOCC2)c1 [Compound 14.3, 3-morpholinosulfonyl-4-((8,8,8-trifluorooctyl)amino)benzoic acid]
NKCC1 Inhibition % 10 μM Neurons Calcium kinetic assay (NKCC1 [1]; Table 1): 7.1%

CN(C)S(=O)(=O)c1cc(C(=O)O)c(OC2CCCC2)cc1NCCCCCCCC(F)(F)F [Compound 12.10]
NKCC1 Inhibition % 10 μM Neurons Calcium kinetic assay (NKCC1 [1]; Table 1): 26.6%
